pKi: −log10 of the molar value.
Legend:
human σ1 receptor = target: T1, human σ1 receptor (Homo sapiens, UniProt Q99720); test: Human σ1 receptor radioligand assay ([3H](+)-pentazocine, transfected HEK-293 membranes); conditions: class scale, read-out: Binding σ-1 Ki
T1 construct: expressed in transfected cells; host or cells: HEK-293
Method in brief: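 Compounds were tested at a single 1 or 10 μM concentration (% inhibition) or at five concentrations to give Ki. They competed with 5 nM [3H](+)-pentazocine for transfected HEK-293 membranes (7 μg) in 50 mM Tris-HCl pH 8 at 37° C for 120 minutes. Nonspecific binding was set with 10 μM haloperidol, and a filtration scintillation read-out was used.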

human σ2/TMEM97 receptor = target: T2, human σ2/TMEM97 receptor (Homo sapiens, UniProt Q5BJF2); test: Binding assay to human σ2/TMEM97 receptor ([3H]-DTG, transfected HEK-293 membranes); conditions: class scale, read-out: Binding σ-2 Ki
T2 construct: expressed in transfected cells; host or cells: HEK-293
T2 sequence (Q5BJF2 whole entry): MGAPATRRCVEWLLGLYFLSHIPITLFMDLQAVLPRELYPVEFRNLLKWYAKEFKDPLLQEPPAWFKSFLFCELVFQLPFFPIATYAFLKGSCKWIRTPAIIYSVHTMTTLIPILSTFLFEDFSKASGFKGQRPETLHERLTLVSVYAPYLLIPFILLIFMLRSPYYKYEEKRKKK
Method in brief: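 Competition against 10 nM [3H]-DTG (Tris-HCl 50 mM, pH 8.0, 25 °C, 120 min) using 15 μg transfected HEK-293 membrane protein, with 10 μM haloperidol defining NSB. Bound radioactivity counted after filtration; results as single-point % inhibition (1 or 10 μM) or five-point Ki.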

T1 sequence (Q99720 whole entry): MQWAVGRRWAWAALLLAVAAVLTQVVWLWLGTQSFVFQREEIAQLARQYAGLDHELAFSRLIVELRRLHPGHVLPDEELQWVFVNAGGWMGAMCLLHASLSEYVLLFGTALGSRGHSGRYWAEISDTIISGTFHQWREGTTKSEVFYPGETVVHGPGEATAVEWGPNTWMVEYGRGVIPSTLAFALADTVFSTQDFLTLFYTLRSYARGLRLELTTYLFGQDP

SMILES | pKi (human σ1 receptor) | pKi (human σ2/TMEM97 receptor)
CCn1cc(-c2nn(C)c(Cl)c2C(=O)NC2CC3(CCN(CCC(C)(C)C)CC3)C2)cn1 [Example 145, 5-Chloro-N-(7-(3,3-dimethylbutyl)-7-azaspiro[3.5]nonan-2-yl)-1′-ethyl-1-methyl-1H,1′H-[3,4′-bipyrazole]-4-carboxamide] | 6.00 to 6.30 | > 7.00
CCn1cc(-c2nn(C)c(Cl)c2C(=O)NC2CCC3(CC2)CCN(CCC(C)(C)C)CC3)cn1 [Example 146, 5-Chloro-N-(3-(3,3-dimethylbutyl)-3-azaspiro[5.5]undecan-9-yl)-1′-ethyl-1-methyl-1H,1′H-[3,4′-bipyrazole]-4-carboxamide] | 6.00 to 6.30 | > 7.00
Cn1nc(-c2cccc(C(F)(F)F)n2)c(C(=O)NC2CCC3(CC2)CCN(CCC(C)(C)C)CC3)c1Cl [Example 147, 5-Chloro-N-(3-(3,3-dimethylbutyl)-3-azaspiro[5.5]undecan-9-yl)-1-methyl-3-(6-(trifluoromethyl)pyridin-2-yl)-1H-pyrazole-4-carboxamide] | > 7.00 | > 7.00
Cc1cccc(-c2nn(C)c(Cl)c2C(=O)NC2CCC3(CC2)CCN(CCC(C)(C)C)CC3)n1 [Example 148, 5-Chloro-N-(3-(3,3-dimethylbutyl)-3-azaspiro[5.5]undecan-9-yl)-1-methyl-3-(6-methylpyridin-2-yl)-1H-pyrazole-4-carboxamide] | > 7.00 | > 7.00
CCn1nc(-c2cnn(C(C)C)c2)c(C(=O)NC2CC3(CCN(CCC(C)(C)C)CC3)C2)c1Cl [Example 149, 5-Chloro-N-(7-(3,3-dimethylbutyl)-7-azaspiro[3.5]nonan-2-yl)-1-ethyl-1′-isopropyl-1H,1′H-[3,4′-bipyrazole]-4-carboxamide] | 6.30 to 7.00 | > 7.00
CCn1nc(-c2cc(C)on2)c(C(=O)N2CCCC3(CCN(CCC(C)(C)C)CC3)C2)c1Cl [Example 150, (5-Chloro-1-ethyl-3-(5-methylisoxazol-3-yl)-1H-pyrazol-4-yl)(9-(3,3-dimethylbutyl)-2,9-diazaspiro[5.5]undecan-2-yl)methanone] | 6.30 to 7.00 | > 7.00
CCn1nc(-c2cccc(C)n2)c(C(=O)NC2CCC3(CC2)CCN(CCC(C)(C)C)CC3)c1Cl [Example 151, 5-Chloro-N-(3-(3,3-dimethylbutyl)-3-azaspiro[5.5]undecan-9-yl)-1-ethyl-3-(6-methylpyridin-2-yl)-1H-pyrazole-4-carboxamide] | > 7.00 | > 7.00
CCn1nc(-c2cc(C(C)C)on2)c(C(=O)N2CCCC3(CCN(CCC(C)(C)C)CC3)C2)c1Cl [Example 152, (5-Chloro-1-ethyl-3-(5-isopropylisoxazol-3-yl)-1H-pyrazol-4-yl)(9-(3,3-dimethylbutyl)-2,9-diazaspiro[5.5]undecan-2-yl)methanone] | 6.30 to 7.00 | > 7.00
Cc1cc(-c2nn(C)c(Cl)c2C(=O)NC2CC3(CCN(Cc4ccccc4)CC3)C2)no1 [Example 153, N-(7-Benzyl-7-azaspiro[3.5]nonan-2-yl)-5-chloro-1-methyl-3-(5-methylisoxazol-3-yl)-1H-pyrazole-4-carboxamide] | 6.30 to 7.00 | 6.30 to 7.00
Cc1cc(-c2nn(C)c(Cl)c2C(=O)NC2CC3(CCN(CC(C)(C)C)CC3)C2)no1 [Example 154, 5-Chloro-1-methyl-3-(5-methylisoxazol-3-yl)-N-(7-neopentyl-7-azaspiro[3.5]nonan-2-yl)-1H-pyrazole-4-carboxamide] | 6.30 to 7.00 | 6.30 to 7.00
Cn1nc(-c2cccc(C(F)(F)F)n2)c(C(=O)N2CCCC3(CCN(CCC(C)(C)C)CC3)C2)c1Cl [Example 155, (5-Chloro-1-methyl-3-(6-(trifluoromethyl)pyridin-2-yl)-1H-pyrazol-4-yl)(9-(3,3-dimethylbutyl)-2,9-diazaspiro[5.5]undecan-2-yl)methanone] | 6.30 to 7.00 | > 7.00

From patent US20240239781A1, “1H-PYRAZOLE DERIVATIVES AS SIGMA LIGANDS” (ACONDICIONAMIENTO TARRASENSE, priority 2021, published 2024)
